Here are results for four compounds from patent publication US20060069132A1, “Azolecarboxamide herbicides” (priority 2004, published 2006).

Test [1] relates to Surinam grass. Nature of the test: Test C pre-/postemergence herbicide test. It counts as in vivo, Urochloa decumbens. To be noted: for Surinam Grass plant response rating: Preemergence, scale 0 to 100, 0 no effect, 100 complete control. The text has this: (§1) Seeds of plant species selected from bermudagrass (Cynodon dactylon (L.) Pers.), Surinam grass (Urochloa decumbens (Staph) R. D. Webster, previously named Brachiaria decumbens Stapf), cocklebur (Xanthium strumarium L.), corn (Zea mays L.), large crabgrass (Digitaria sanguinalis (L.) Scop.), woolly cupgrass (Eriochloa villosa (Thunb.) Kunth), giant foxtail (Setaria faberi Herrm.), goosegrass (Eleusine indica (L.) Gaertn.), johnsongrass (Sorghum halepense (L.) Pers.), kochia (Kochia scoparia (L.) Schrad.), lambsquarters (Chenopodium album L.), morningglory (Ipomoea coccinea L.), eastern black nightshade (Solanum ptycanthum Dunal), yellow nutsedge (Cyperus esculentus L.), pigweed (Amaranthus retroflexus L.), common ragweed (Ambrosia elatior L.), soybean (Glycine max (L.) Merr.), common (oilseed) sunflower (Helianthus annuus L.) and velvetleaf (Abutilon theophrasti Medik.) were planted and treated preemergence with test chemicals formulated in a non-phytotoxic solvent mixture which included a surfactant.
(§2) At the same time, plants selected from these crop and weed species and also winter barley (Hordeum vulgare L.), blackgrass (Alopecurus myosuroides Huds.), canarygrass (Phalaris minor Retz.), chickweed (Stellaria media (L.) Vill.), downy bromegrass (Bromus tectorum L.), green foxtail (Setaria viridis (L.) Beauv.), Italian ryegrass (Lolium multiflorum Lam.), wheat (Triticum aestivum L.), wild oat (Avenafatua L.) and windgrass (Apera spica-venti (L.) Beauv.) were treated with postemergence applications of some of the test chemicals formulated in the same manner. Plants ranged in height from 2 to 18 cm (1- to 4-leaf stage) for postemergence treatments. Plant species in the flooded paddy test consisted of rice (Oryza sativa), smallflower umbrella sedge (Cyperus difformis L.), ducksalad (Heteranthera limosa (Sw.) Willd.) and barnyardgrass (Echinochloa crus-galli (L.) Beauv.) grown to the 2-leaf stage for testing. Treated plants and controls were maintained in a greenhouse for 12 to 14 days, after which time all species were compared to controls and visually evaluated. Plant response ratings, summarized in Table C, are based on a scale of 0 to 100 where 0 is no effect and 100 is complete control. A dash (-) response means no test result.

For test [2], the system named is giant foxtail. Put plainly: Test C pre-/postemergence herbicide test. It counts as in vivo, Setaria faberi. To be noted: for Foxtail, Giant plant response rating: Preemergence, scale 0 to 100, 0 no effect, 100 complete control.
Description: as §1, §2

The subject of test [3] is johnsongrass. Put plainly: Test C pre-/postemergence herbicide test. The class given is in vivo, Sorghum halepense. The conditions noted are these: for Johnsongrass plant response rating: Preemergence, scale 0 to 100, 0 no effect, 100 complete control.
Description: as §1, §2

The test system of test [4] is kochia. Put plainly: Test C pre-/postemergence herbicide test. It counts as in vivo, Kochia scoparia. The conditions noted are these: for Kochia plant response rating: Preemergence, scale 0 to 100, 0 no effect, 100 complete control.
Description: as §1, §2

Test [5] relates to yellow nutsedge. Put plainly: Test C pre-/postemergence herbicide test. It counts as in vivo, Cyperus esculentus. To be noted: for Nutsedge, Yellow plant response rating: Preemergence, scale 0 to 100, 0 no effect, 100 complete control.
Description: as §1, §2

Test [6] relates to rice. Put plainly: Test C flooded paddy test. It counts as in vivo, Oryza sativa. To be noted: for Plant response rating, Rice: 500 g ai/ha, visual rating after 12 to 14 days. The procedure, abridged:
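Postemergence sprays applied to plants 2 to 18 cm tall (1- to 4-leaf stage); paddy species grown to 2-leaf stage under flooding. After 12 to 14 days in greenhouse, visual rating versus untreated controls on 0–100 scale (0 no effect, 100 complete control).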

Setting [7] is: 62 g ai/ha, preemergence, scale 0 to 100.
The mark [8] stands for this setting: 250 g ai/ha, scale 0-100, preemergence.
The mark [9] stands for this setting: 500 g ai/ha, scale 0 to 100 (0 no effect, 100 complete control), visual, 12 to 14 days, preemergence.
The mark [10] stands for this setting: 125 g ai/ha, scale 0 (no effect) to 100 (complete control), visual, 12 to 14 days, preemergence.
The mark [11] stands for this setting: 125 g ai/ha, scale 0 to 100 (0 no effect, 100 complete control).
Where [12] appears, read: 250 g ai/ha, scale of 0 to 100, 0 is no effect, 100 is complete control.
[13] abbreviates: scale 0 to 100 (0 no effect, 100 complete control).
The mark [14] stands for this setting: 250 g ai/ha, scale 0 to 100 (0 no effect, 100 complete control), visual, 12 to 14 days, preemergence.

For the compound `CCN(C)C(=O)c1ccc(F)c(NC(=O)C2CC(C(C)(C)C)=NN2CC)c1` (racemic) [Compound 307], the “Plant response rating, Surinam Grass” value in test [1] (setting [7]) is listed as 70; in test [1] (setting [8]), 90; in test [1] (setting [9]) it was 90. In addition, the “Plant response rating, Foxtail, Giant” value in test [2] (setting [7]) came out at 70; in test [2] (setting [10]), 85; in test [2] (setting [8]), 100; in test [2] (setting [9]), 100. Further, the “Plant response rating, Johnsongrass” value is 60 in test [3] (setting [7]), 80 in test [3] (setting [10]), 90 in test [3] (setting [8]) and 100 in test [3] (setting [9]). Further, the “Plant response rating, Kochia” value in test [4] (setting [7]), in test [4] (setting [10]), in test [4] (setting [8]) and in test [4] (setting [9]) was 100 in each case. For the same compound, the “Plant response rating, Nutsedge, Yellow” value is given as 5 in test [5] (setting [7]), 20 in test [5] (setting [10]), 50 in test [5] (setting [8]) and 50 in test [5] (setting [9]). The “Rice plant response rating” value in test [6] (62 g ai/ha, scale 0 to 100) is 55; in test [6] (setting [11]), 60; in test [6] (setting [12]) it was 65. Further, in test [6] (setting [13]), the “Plant response rating, Rice” value is 80.
On to `CCC1=NN(C(C)(C)C)CC1C(=O)Nc1cc(C(=O)N(C)C)ccc1F` (racemic) [Compound 343], for which the results for the “Plant response rating, Surinam Grass” value in test [1] (setting [7]), in test [1] (setting [8]) and in test [1] (setting [9]) were 60, 100 and 100, respectively. Further, the “Plant response rating (0 = no effect, 100 = complete control), Surinam Grass” value in test [1] (125 g ai/ha, preemergence) was determined as 85. Further, the figures for the “Plant response rating, Foxtail, Giant” value in test [2] (setting [7]), in test [2] (setting [8]) and in test [2] (setting [9]) were 40, 70 and 80, respectively. In addition, the “Plant response rating (0 = no effect, 100 = complete control), Foxtail, Giant” value in test [2] (125 g ai/ha, preemergence) worked out at 50. For the same compound, the figures for the “Plant response rating, Johnsongrass” value in test [3] (setting [7]), in test [3] (setting [8]) and in test [3] (setting [9]) were 70, 100 and 100, respectively. For the same compound, in test [3] (125 g ai/ha, preemergence), the “Plant response rating (0 = no effect, 100 = complete control), Johnsongrass” value is 80. Besides, the “Plant response rating, Kochia” value in test [4] (setting [7]) is on record as 90; in test [4] (setting [8]) it was 100; in test [4] (setting [9]), 100. Besides, the “Plant response rating (0 = no effect, 100 = complete control), Kochia” value in test [4] (125 g ai/ha, preemergence) is listed as 100. Moreover, the “Plant response rating, Nutsedge, Yellow” value came to 5 in test [5] (setting [7]), 60 in test [5] (setting [8]) and 90 in test [5] (setting [9]). For the same compound, the “Plant response rating (0 = no effect, 100 = complete control), Nutsedge, Yellow” value in test [5] (125 g ai/ha, preemergence) is 10. Besides, the “Rice plant response rating” value in test [6] (62 g ai/ha, scale 0 to 100) is 20; in test [6] (setting [11]), 50; in test [6] (setting [12]) it was 70. Besides, the “Plant response rating, Rice” value in test [6] (setting [13]) stood at 80.
With `CCN(C)C(=O)c1cccc(NC(=O)c2cc(C(C)(C)C)nn2CC)c1` [Compound 48], the “Plant response rating (0 = no effect, 100 = complete control), Surinam Grass” value in test [1] (62 g ai/ha, preemergence) turned out to be 0. Also, the “Plant response rating, Surinam Grass” value in test [1] (setting [10]) amounted to 5; in test [1] (setting [14]), 30. Besides, the “Surinam Grass plant response rating” value in test [1] (500 g ai/ha) amounted to 60. In test [2] (62 g ai/ha, preemergence), the “Plant response rating (0 = no effect, 100 = complete control), Foxtail, Giant” value turned out to be 0. Also, the “Plant response rating, Foxtail, Giant” value in test [2] (setting [10]) is recorded as 0; in test [2] (setting [14]) it was 10. For the same compound, the “Foxtail, Giant plant response rating” value in test [2] (500 g ai/ha) is 50. The “Plant response rating (0 = no effect, 100 = complete control), Johnsongrass” value in test [3] (62 g ai/ha, preemergence) was 10. Also, the “Plant response rating, Johnsongrass” value in test [3] (setting [10]) was 20; in test [3] (setting [14]), 50. Besides, the “Johnsongrass plant response rating” value in test [3] (500 g ai/ha) was found to be 85. Further, the “Plant response rating (0 = no effect, 100 = complete control), Kochia” value in test [4] (62 g ai/ha, preemergence) is given as 10. For the same compound, the “Plant response rating, Kochia” value stood at 60 in test [4] (setting [10]) and 80 in test [4] (setting [14]). Also, the “Kochia plant response rating” value in test [4] (500 g ai/ha) is given as 100. The “Plant response rating (0 = no effect, 100 = complete control), Nutsedge, Yellow” value in test [5] (62 g ai/ha, preemergence) is recorded as 0. The figures for the “Plant response rating, Nutsedge, Yellow” value in test [5] (setting [10]) and in test [5] (setting [14]) were 0 and 10, respectively. The “Nutsedge, Yellow plant response rating” value in test [5] (500 g ai/ha) amounted to 30. The “Rice plant response rating” value in test [6] (16 g ai/ha, scale 0 to 100) stood at 0; in test [6] (31 g ai/ha, scale 0 to 100) it was 0; in test [6] (62 g ai/ha, scale 0 to 100 (0 no effect, 100 complete control)) it was 0; in test [6] (125 g ai/ha, scale of 0 to 100, 0 is no effect, 100 is complete control), 20.
Consider `CCc1nn(C(C)(C)C)cc1C(=O)Nc1cccc(C(=O)N(CC)CC)c1` [Compound 182, N-[3-[(diethylamino)carbonyl]phenyl]-1-(1,1-dimethylethyl)-3-ethyl-1H-pyrazole-4-carboxamide], for which, in test [1] (500 g ai/ha), the “Surinam Grass plant response rating” value came out at 85. Also, the pest or weed control at 62 g/ha in test [1] (Urochloa decumbens, pre-emergence, 312 h, 62 g ai/ha, preemergence, scale 0 to 100, read-out: Plant response rating, Surinam Grass) amounted to 0%; in test [2] (Setaria faberi, pre-emergence, 312 h, 62 g ai/ha, preemergence, scale 0 to 100, read-out: Plant response rating, Foxtail, Giant) it was 0%; in test [3] (Sorghum halepense, pre-emergence, 62 g ai/ha, preemergence, scale 0 to 100, read-out: Plant response rating, Johnsongrass), 0%; in test [4] (Bassia scoparia, pre-emergence, 62 g ai/ha, preemergence, scale 0 to 100, read-out: Plant response rating, Kochia), 0%; in test [5] (Cyperus, pre-emergence, 62 g ai/ha, preemergence, scale 0 to 100, read-out: Plant response rating, Nutsedge, Yellow), 0%. Besides, the pest or weed control at 125 g/ha came out at 20% in test [1] (Urochloa decumbens, pre-emergence, 312 h, 125 g ai/ha, scale 0 (no effect) to 100 (complete control), visual, 12 to 14 days, read-out: Plant response rating, Surinam Grass); 0% in test [2] (Setaria faberi, pre-emergence, 312 h, 125 g ai/ha, scale 0 (no effect) to 100 (complete control), visual, 12 to 14 days, read-out: Plant response rating, Foxtail, Giant); 35% in test [3] (Sorghum halepense, pre-emergence, 125 g ai/ha, scale 0 (no effect) to 100 (complete control), visual, 12 to 14 days, read-out: Plant response rating, Johnsongrass); 60% in test [4] (Bassia scoparia, pre-emergence, 125 g ai/ha, scale 0 (no effect) to 100 (complete control), visual, 12 to 14 days, read-out: Plant response rating, Kochia); 0% in test [5] (Cyperus, pre-emergence, 125 g ai/ha, scale 0 (no effect) to 100 (complete control), visual, 12 to 14 days, read-out: Plant response rating, Nutsedge, Yellow). In addition, in test [2] (500 g ai/ha), the “Foxtail, Giant plant response rating” value turned out to be 60. For the same compound, the pest or weed control at 250 g/ha in test [2] (Setaria faberi, pre-emergence, 312 h, 250 g ai/ha, scale 0 to 100 (0 no effect, 100 complete control), visual, 12 to 14 days, read-out: Plant response rating, Foxtail, Giant) worked out at 60%. For the same compound, the “Johnsongrass plant response rating” value in test [3] (500 g ai/ha) is reported as 75. The “Kochia plant response rating” value in test [4] (500 g ai/ha) stood at 90. The “Nutsedge, Yellow plant response rating” value in test [5] (500 g ai/ha) is recorded as 0.
